Test results taken from ChEMBL document CHEMBL3758102, “Serrulatane Diterpenoid from Eremophila neglecta Exhibits Bacterial Biofilm Dispersion and Inhibits Release of Pro-inflammatory Cytokines from Activated Macrophages” (J Nat Prod, 2015).
Active and inactive are the calls of the source. No cut-off for these calls is given here.

Columns and labels:
[1] = system: Staphylococcus epidermidis; assay: Antibacterial activity against Staphylococcus epidermidis ATCC 35984 incubated overnight by broth microdilution method; assay type: functional
[2] = system: Staphylococcus epidermidis; assay: Antibiofilm activity against Staphylococcus epidermidis ATCC 35984 assessed as inhibition of 3 to 6 hrs pre-established biofilm formation at 0.064 umol/well after 20 hrs by safranin staining-based method; assay type: functional, organism-based
[3] = system: Staphylococcus epidermidis; assay: Antibiofilm activity against Staphylococcus epidermidis ATCC 35984 assessed as inhibition of 12 hrs pre-established biofilm formation at 0.064 umol/well after 20 hrs by safranin staining-based method; assay type: functional, organism-based
[4] = system: Staphylococcus epidermidis; assay: Antibiofilm activity against Staphylococcus epidermidis ATCC 35984 assessed as inhibition of 24 hrs pre-established biofilm formation at 0.064 umol/well after 20 hrs by safranin staining-based method; assay type: functional, organism-based
[5] = system: Staphylococcus epidermidis; assay: Antibiofilm activity against Staphylococcus epidermidis ATCC 35984 assessed as 3 hrs pre-established biofilm viable cell count after 20 hrs (reference value: 1 x 10^10 CFU/ml); assay type: functional
[6] = system: Staphylococcus epidermidis; assay: Antibiofilm activity against Staphylococcus epidermidis ATCC 35984 assessed as 6 hrs pre-established biofilm viable cell count after 20 hrs (reference value: 8.3 x 10^9 CFU/ml); assay type: functional
[7] = system: Staphylococcus epidermidis; assay: Antibiofilm activity against Staphylococcus epidermidis ATCC 35984 assessed as 12 hrs pre-established biofilm viable cell count after 20 hrs (reference value: 1.2 x 10^10 CFU/ml); assay type: functional
[8] = system: Staphylococcus epidermidis; assay: Antibiofilm activity against Staphylococcus epidermidis ATCC 35984 assessed as 24 hrs pre-established biofilm viable cell count after 20 hrs (reference value: 1.4 x 10^10 +/- 2.6 x 10^9 CFU/ml); assay type: functional
[9] = system: Staphylococcus epidermidis; assay: Antibiofilm activity against Staphylococcus epidermidis ATCC 35984 assessed as reduction in 12 hrs pre-established biofilm viable cell count after 20 hrs (reference value: 1.2 x 10^10 CFU/ml); assay type: functional
[10] = system: Staphylococcus epidermidis; assay: Antibiofilm activity against Staphylococcus epidermidis ATCC 35984 assessed as inhibition of 12 hrs pre-established biofilm formation at 0.064 umol/well after 20 hrs by visible spectrometric analysis; assay type: functional, organism-based
[11] = system: Staphylococcus epidermidis; assay: Antibiofilm activity against Staphylococcus epidermidis ATCC 35984 assessed as inhibition of 24 hrs pre-established biofilm formation at 0.064 umol/well after 20 hrs by visible spectrometric analysis; assay type: functional, organism-based
[12] = system: Staphylococcus epidermidis; assay: Antibiofilm activity against Staphylococcus epidermidis ATCC 35984 assessed as killing of biofilm in 12 hrs pre-established biofilm at 0.064 umol/well after 20 hrs by fluorescence staining-based confocal microscopic analysis; assay type: functional, organism-based
BMDM [13] = assay: Inhibition of TNFalpha production in C57Bl/6 mouse BMDM cells at 1.6 to 6.4 uM pretreated prior to LPS-stimulation measured on day 7 by ELISA; assay type: functional, cell-based; conditions: C57BI/6
BMDM [14] = assay: Inhibition of IL-6 production in C57Bl/6 mouse BMDM cells at 1.6 to 6.4 uM pretreated prior to LPS-stimulation measured on day 7 by ELISA; assay type: functional, cell-based; conditions: C57BI/6
BMDM [15] = assay: Inhibition of IL-1beta production in C57Bl/6 mouse BMDM cells at 1.6 to 6.4 uM pretreated for 1 hr prior to ATP-stimulation by ELISA; assay type: functional, cell-based; conditions: C57BI/6

C[C@H]1COc2c(N3CCN(C)CC3)c(F)cc3c(=O)c(C(=O)O)cn1c23.C[C@H]1COc2c(N3CCN(C)CC3)c(F)cc3c(=O)c(C(=O)O)cn1c23.O [LEVOFLOXACIN]
MIC [1]: 0.66 µM | Activity [2]: Active | Activity [3]: inactive | Activity [4]: inactive | Activity [5]: 0 CFU/ml | Activity [6]: 0 CFU/ml | Activity [7]: 8 ×10³ CFU/ml | Activity [8]: 2.2 ×10⁶ CFU/ml | Activity [9]: 7 log10CFU/ml | inhibition [10]: Active | inhibition [11]: Active | Activity [12]: Active

C[C@]12CCC(=O)C=C1CC[C@@H]1[C@@H]2[C@@H](O)C[C@@]2(C)[C@H]1CC[C@]2(O)C(=O)COC(=O)CCC(=O)O
inhibition (BMDM [13]): Active | inhibition (BMDM [14]): Active | inhibition (BMDM [15]): inactive

N=C(NCCCCCCNC(=N)NC(=N)Nc1ccc(Cl)cc1)NC(=N)Nc1ccc(Cl)cc1 [CHLORHEXIDINE]
Activity [2]: inactive | Activity [3]: Active | Activity [4]: Active | Activity [5]: 0 CFU/ml | Activity [6]: 0 CFU/ml | Activity [7]: 4 ×10³ CFU/ml | Activity [8]: 1.3 ×10⁶ CFU/ml | Activity [9]: 7 log10CFU/ml | inhibition [10]: Active | inhibition [11]: Active | Activity [12]: Active
